Measurements: patent US11986512B2, “Compositions and methods for cancer therapy” (Thetis Pharmaceuticals LLC, priority 2021, dated 2024)

Legend:
Assay type in all cases: in vivo, C57BL/6J male mice
LLC cells = experiment: Metastatic LLC resection model, perioperative (neo-adjuvant) treatment; details: 300 ug/kg, SC, Q6D, first dose 2 hours prior to surgery
Protocol: To investigate the efficacy of LTD dosing of bis RvE1 Mg-di-lysinate as neo-adjuvant therapy, a study was conducted in the metastatic LLC resection model with treatment initiated in the perioperative window. A total of fifteen (15) C57BL/6J male mice were injected subcutaneously with 1×10e6 living LLC cells. Once tumors reached approximately 1200-1500 mme3 in size, the mice were randomized (n=4-8 per group) to treatment with vehicle (SC, Q6D), bis RvE1 Mg-di-lysinate (300 ug/kg, SC, Q6D), or cisplatin (5 mg/kg, i.p, Q6D), followed by surgical resection of the tumors. The mice in the vehicle and cisplatin groups received an initial dose twenty-four (24) hours prior to surgery, and the mice treated with bis RvE1 Mg-di-lysinate received an initial dose two (2) hours prior to surgery. All mice were sacrificed on day 19 following the death of three mice in the vehicle control group on day 18.

Panc2-H7 cells = experiment: Panc2-H7 model of pancreatic cancer, with and without anti-PD1
Protocol: (§1) A representative compound of Formula IV, RvE1 magnesium dilysinate, was tested for efficacy in several mouse models of cancer, including the Panc2-H7 model of pancreatic cancer, the Lewis lung carcinoma (LLC) model, the MC38 model of colorectal cancer, and the B16F10 model of melanoma. These models are well established, highly tumorigenic syngeneic models in which murine cancer cell lines are injected subcutaneously (SC) into the dorsum of C57BL/6J mice. If left untreated, these tumors grow rapidly and lead to death or euthanasia, per protocol. As detailed below in Examples 1-9 and the accompanying figures, bis RvE1 Mg-di-lysinate (Compound 1) was unexpectedly effective as an anti-cancer agent in each of these model systems when administered in a less than daily (LTD) dosing regimen. […] Without being bound by any theory, the surprising efficacy of LTD dosing of resolvins in the cancer model systems described here may be the result of durable effects on the tumor microenvironment including changes in immune cell phenotype, vascularization, stromal phenotype, and antigen presentation, as well as durable effects on the T-cell compartment such as T-cell priming and increased tumor-infiltrating lymphocytes.
Over the last two decades, research on checkpoint inhibitors, including anti-PD(L)1 and anti-CTLA4, has focused on T-cells as a major therapeutic target. Waldman et al., Nat Rev Immunol. 2020; 20(11):651-668. In general, the response to treatment with immune checkpoint inhibitors requires the presence of CD4+ and CD8+ T cells in the tumor microenvironment. Li et al., Biochim Biophys Acta Rev Cancer. 2020; 1874(2):188439. […] Chiurchiu et al., Sci. Transl. Med. 2016; 8:353ra111; Mizraji et al., Front Immunol. 2018; 9:785; Oner et al., Front Immunol. 2021; 12:637983. In addition, resolvins can enhance the de novo generation and function of immunosuppressive T regulatory cells, which are associated with cancer progression and resistance to immune checkpoint inhibitors. Alvarez et al., Front Immunol. 2021; 12:664756; Togashi et al., Nat Rev Clin Oncol 2019; 16, 356-371. […]

B16F10 cells = experiment: B16F10 model of melanoma, with anti-PD1 and anti-CTLA4
Protocol: as §1
Based on the finding of increased efficacy with bis RvE1 Mg-di-lysinate administered in combination with anti-PD1 monotherapy and anti-CTLA4 monotherapy, a study was conducted to investigate the efficacy of less than daily (LTD) bis RvE1 Mg-di-lysinate combined with both anti-PD1 and anti-CTLA4 in the B16F10 model of melanoma. […] See Perez-Ruiz E, et al. Nature. 2019; 569(7756):428-432. Thus, this initial study with ICI dual therapy was designed to investigate whether use of bis RvE1 Mg-di-lysinate with the ICI dual therapy could enhance efficacy, which may offer the opportunity to reduce the dose of the ICI components of the regimen without loss of efficacy. A total of sixty-four (64) C57BL/6J male mice were injected subcutaneously with 1×10e6 living B16F10 cells in the dorsum. When tumors reached a mean tumor volume of approximately 130 mme3, the mice were randomized (n=8 per group) to treatment with vehicle, bis RvE1 Mg-di-lysinate (300 ug/kg, SC, Q6D), anti-PD1 (8 mg/kg, i.p., Q3D) or anti-CTLA-4 (4 mg/kg, Q3D). The double combinations of bis RvE1 Mg-di-lysinate and anti-CTLA-4 or anti-PD1, and anti-PD1 with anti-CTLA-4, as well as the triple combination of bis RvE1 Mg-di-lysinate, anti-CTLA-4 and anti-PD1 were also investigated. All combination arms used the same dosing regimens as the individual monotherapies. The mice were sacrificed on day 12 per protocol when the mean tumor of the vehicle group reached approximately 2,000 mm^3. […] This is clinically relevant for melanoma patients receiving anti-PD1 monotherapy, which is used when the side effects of ICI dual therapy are not tolerated.

[1] = triple therapy (bis RvE1 Mg-di-lysinate + anti-CTLA-4 + anti-PD1), p<0.001

For `CC[C@@H](O)/C=C/C=C\C[C@@H](O)/C=C/C=C/C=C\[C@@H](O)CCCC(=O)O` [bis RvE1 Mg-di-lysinate], which “number of lung metastases” value (LLC cells; compared to vehicle control and cisplatin, p<0.05) is on record?
The value was “significantly reduced the number of lung metastases”.

And the “number of mice with metastasis in the axillary or inguinal lymph nodes” value (LLC cells; compared to vehicle or cisplatin, p<0.01)?
The value was “significantly reduced the number of mice with metastasis in the axillary or inguinal lymph nodes”.

What about the tumor growth (Panc2-H7 cells; double combination: bis RvE1 Mg-di-lysinate 30 ug/kg SC plus anti-PD1 8 mg/kg IP Q3D, p<0.001 vs placebo and monotherapy groups) of the same compound?
The tumor growth was “significantly inhibited tumor growth relative to control”.

And the “anti-cancer effect (tumor volume, Day 15 vs Day 0)” value (Panc2-H7 cells; monotherapy, 30 ug/kg, subcutaneous injection)?
The value was “did not have a significant anti-cancer effect”.

And the tumor growth (Panc2-H7 cells; triple combination of bis RvE1 Mg-di-lysinate, anti-PD1 and gemcitabine)?
The tumor growth was “significantly inhibited tumor growth relative to control”.

And the “inhibition compared to anti-PD1 monotherapy” value (B16F10 cells; double combination of bis RvE1 Mg-di-lysinate 300 ug/kg SC Q6D and anti-PD1 8 mg/kg i.p. Q3D, p<0.05)?
The value was 54%.

What about the “efficacy of LTD dosing” value (B16F10 cells; monotherapy, 300 ug/kg, SC, Q6D) of the same compound?
Its value is “effective as monotherapy”.

And the “tumor growth inhibition compared to anti-CTLA-4 monotherapy” value (B16F10 cells; [1])?
Its value is 71%.

What about the “tumor growth inhibition compared to anti-PD1 monotherapy” value (B16F10 cells; [1]) of the same compound?
The value was 87%.

What about the “inhibition, tumor volume at day 12 divided by tumor volume at day 0” value (B16F10 cells; triple therapy: bis RvE1 Mg-di-lysinate 300 ug/kg SC Q6D + anti-CTLA-4 4 mg/kg Q3D + anti-PD1 8 mg/kg i.p. Q3D, p<0.05) of the same compound?
Its value is 67%.
